Structures can show the parent of a compound that is named as a salt. Where two headings read alike, the source gives them in different places.
Columns and labels:
[1] = test system: LPS-induced plasma TNFα production; assay: LPS-induced cytokine production in rat plasma; type: in vivo, Lewis rats; settings: oral 1 h before LPS 0.4 mg/kg i.p.
Description: Alternately, the compound is screened for its ability to inhibit the LPS-induced cytokine production in rat plasma according to the method reported in the literature (Ziegelbauer K, Gantner F, Lukacs N W, et al. Br J. Pharmacol. 2005,145(2):178-92). Briefly, Lewis rats (male, body weight 140 g-180 g) are used in the experiments. Animals (8/group) are given 1 to 100 mg/kg of the testing compound (suspension in 35% solutol & 60% PEG400 & 5% PG) or vehicle by oral gavage at 1 h prior to intraperitoneal administration of LPS 0.4 mg/kg. Ninety minutes after the intraperitoneal administration of LPS, blood is collected in heparin anticoagulated tubes to measure TNFα using R&D System ELISA Kit based on the general Kit protocols. The plasma sample is diluted 100 fold with the dilution buffer and 50 μL of diluted sample is used in each measurement. The plate is read on a SPECTRAMAX® M2e Plus Plate Reader and TNFα levels are analyzed based on the standard curve. The drug levels in plasma are measured with LC-MS-MS. […] Alternately, the compound is screened for its ability to inhibit the LPS-induced cytokine production in mouse plasma. Balb/c mice (female, body weight 18-20 g) are used in the experiments. […] The plate is read on a SPECTRMAX® M2e Plus Plate Reader and the data is analyzed using a standard curve.

Skov3-luc cells = assay: Cell viability test, combination study, Skov3-luc; type: cell-based; settings: Homo sapiens, 72 h, read-out: Ave. Inhibition rate
Description: To evaluate biological activity of a compound in vitro, the cell viability test is applied, in which, IKKβ receptor plays an important role in cell survival and proliferation. Once the IKKβ pathway is blocked by inhibitors, a cell can go through apoptosis or death. The cell viability test provides information on cell survival after treatment with IKK inhibitors.
BxPC-3 cells (ATCC #CRL-1687; human pancreatic cancer cell line) are grown in Roswell Park Memorial Institute (RPMI) 1640 media (Gibco #A10491-01) supplemented with 10% fetal bovine serum (FBS) (Gibco #10099-141). Skov3-luc cells (ATCC, human ovarian carcinoma cell line) are grown in McCoy's 5a medium (Gibco#16600) supplemented with 10% FBS (Gibco#10099-141). For compound testing, BxPc-3 and Skov3-Luc cells are seeded at 2000 and 5000 cells/well respectively in 100 μL of corresponding media specified above for each cell line in 96-well plates 20 h prior to treatment. Cells are treated with a test compound at eight different concentrations in the presence of 0.5% DMSO for 72 h. Cell death in each well is determined by the addition of 20 μL of the One Solution Reagent (CELLTITER 96® AQueous One Solution Cell Proliferation Assay, Promega #G3580). After 2-4 h of incubation at 37° C., optical densities at 492 nm are measured with a microplate reader Inhibition of cell viability is determined by comparison to the control cells treated in the absence of a test compound.
For the combination study of the compound with other antitumor agents, BxPc-3 and Skov3-Luc cells are seeded at 2000 and 5000 cells/well respectively in 100 μL corresponding media specified above for each cell line in 96-well plates 20 h prior to the treatment. […] Cell death in each well is determined by the addition of 20 μL of the One Solution Reagent (CELLTITER 96® AQueous One Solution Cell Proliferation Assay, Promega #G3580). After 2-4 h of incubation at 37° C., optical densities at 492 nm are measured with a microplate reader Inhibition of cell viability is determined by comparison to the control cells treated in the absence of a test compound. […]

| EC50 ([1]; read-out: EC50, plasma TNFα production (drug level in plasma)) [µg/mL] | Compound | ED50 [1] [mg/kg] | inhibition at 12.5 µM (Skov3-luc cells; Example 1 12.5 μM alone) [%] | inhibition at 12.5 µM (Skov3-luc cells; Vincristine 0.25 μM + Example 1 12.5 μM) [%] |
| --- | --- | --- | --- | --- |
| 4.04 ± 1.28 | Cl.O=C(NC1CC1)c1cccc2[nH]c(-c3nc(N[C@@H]4CCC[C@H]4O)ncc3Cl)cc12 [Example 2, 2-{5-Chloro-2-[(1R,2R)-2-hydroxycyclopentylamino]pyrimidin-4-yl}-N-cyclopropyl-1H-indole-4-carboxamide hydrochloride] | 19.8 ± 10.9 | – | – |
| – | O=C(NC1CC1)c1cccc2[nH]c(-c3nc(N[C@@H]4CCC[C@@H]4O)ncc3Cl)cc12 [Example 1, 2-{5-Chloro-2-[(1R,2S)-2-hydroxycyclopentylamino]pyrimidin-4-yl}-N-cyclopropyl-1H-indole-4-carboxamide hydrochloride] | – | 21.8 | 82.3 |
